According to ChEMBL document CHEMBL4419175, “Compositions for treatment, diagnosis and prognosis of diseases” (2016):
Activity calls are given as the source filed them. The calls are words filed in the database; no cut-off is given here.

Experiments:
[1] = test system: PC-3; assay: Inhibition of PKAR1alpha protein expression in human PC3 cells at 20 uM incubated for 48 hrs by immunoblot analysis; format: functional, cell-based
[2] = test system: PC-3; assay: Inhibition of PIP5K1alpha protein expression in human PC3 cells assessed as reduction in cyclin A2 expression at 50 uM incubated for 48 hrs by immunoblot analysis relative to control; format: functional, cell-based
[3] = test system: PC-3; assay: Inhibition of PIP5K1alpha protein expression in human PC3 cells assessed as reduction in cyclin D1 expression at 50 uM incubated for 48 hrs by immunoblot analysis relative to control; format: functional, cell-based
[4] = Toxicity in mouse xenografted with human PC3 cells assessed as induction of body weight loss at 40 mg/kg dosed every second day starting from day 0 and ending on day 20; format: organism-based; conditions: in vivo
[5] = test system: PC-3; assay: Antiproliferation activity against human PC3 cells assessed as cell proliferation at 20 uM by MTS assay; format: functional; conditions: read-out: Activity
[6] = test system: PC-3; assay: Inhibition of PIP5K1alpha protein expression in human PC3 cells assessed as reduction in CDK1 phosphorylation at 50 uM incubated for 48 hrs by immunoblot analysis relative to control; format: functional, cell-based
[7] = test system: PC-3; assay: Inhibition of PIP3 protein expression in human PC3 cells at 50 uM incubated for 48 hrs by immunoblot analysis; format: functional, cell-based
[8] = test system: Caco-2; assay: Inhibition of cell proliferation in human Caco2 cells assessed as reduction in viable cell count at 10 to 100 uM incubated for 48 hrs; format: functional, cell-based
[9] = test system: LNCaP; assay: Reduction in CDK1 protein expression in human LNCAP cells at 20 uM incubated for 48 hrs by immunoblot analysis; format: functional, cell-based
[10] = test system: LNCaP; assay: Induction of apoptosis in human LNCAP cells assessed as formation of apoptotic bodies at 20 uM incubated for 48 hrs; format: functional, cell-based
[11] = test system: LNCaP; assay: Reduction in SKP2 protein expression in human LNCAP cells at 20 uM incubated for 48 hrs by immunoblot analysis; format: functional, cell-based
[12] = test system: PC-3; assay: Inhibition of PIP5K1alpha protein expression in human PC3 cells assessed as AKT phosphorylation at Ser473 residues at 50 uM incubated for 48 hrs by immunoblot analysis relative to control; format: functional; parameters: scale not given: the % may be the effect or the level left
[13] = test system: PC-3; assay: Inhibition of cell invasion in human PC3 cells assessed as cell invasion relative to control; format: functional; parameters: scale not given: the % may be the effect or the level left
[14] = test system: PC-3; assay: Induction of apoptosis in human PC3 cells assessed as viable cells at 50 uM incubated for 48 hrs by Annexin-/7-AAD staining based FACS analysis (reference value: 94.31%); format: functional; conditions: PC-3, 48 h, read-out: Activity
[15] = test system: LNCaP; assay: Inhibition of PIP5K1alpha protein expression in human LNCAP cells assessed as reduction in AKT phosphorylation at Ser473 residues at 20 uM incubated for 48 hrs by immunoblot analysis relative to control; format: functional
[16] = test system: PC-3; assay: Induction of apoptosis in human PC3 cells assessed as late apoptotic cells at 50 uM incubated for 48 hrs by Annexin-/7-AAD staining based FACS analysis (reference value: 2.83%); format: functional
[17] = target: Phosphatidylinositol 4-phosphate 5-kinase type-1 alpha (Homo sapiens) (UniProt Q99755); assay: Binding affinity to human PIP5K1alpha
Phosphatidylinositol 4-phosphate 5-kinase type-1 alpha (Homo sapiens), sequence (Q99755 whole entry): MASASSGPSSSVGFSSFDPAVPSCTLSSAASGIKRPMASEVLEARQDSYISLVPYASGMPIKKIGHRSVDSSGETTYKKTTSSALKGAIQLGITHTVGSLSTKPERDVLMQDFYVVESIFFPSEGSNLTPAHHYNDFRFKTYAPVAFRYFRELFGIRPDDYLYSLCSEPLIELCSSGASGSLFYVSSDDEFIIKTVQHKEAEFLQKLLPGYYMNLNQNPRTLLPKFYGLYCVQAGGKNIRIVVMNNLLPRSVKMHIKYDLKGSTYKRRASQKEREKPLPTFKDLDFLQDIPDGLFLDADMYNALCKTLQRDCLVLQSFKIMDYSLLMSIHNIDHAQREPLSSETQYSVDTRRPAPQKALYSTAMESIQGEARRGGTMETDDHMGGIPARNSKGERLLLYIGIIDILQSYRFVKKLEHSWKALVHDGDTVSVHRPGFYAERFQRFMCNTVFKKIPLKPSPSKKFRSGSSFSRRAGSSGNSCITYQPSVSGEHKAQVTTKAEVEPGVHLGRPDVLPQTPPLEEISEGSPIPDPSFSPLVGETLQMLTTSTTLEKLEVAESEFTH

[18] = test system: PC-3; assay: Inhibition of PIP5K1alpha protein expression in human PC3 cells assessed as reduction in cyclin E1 expression at 50 uM incubated for 48 hrs by immunoblot analysis relative to control; format: functional, cell-based
[19] = test system: PC-3; assay: Antitumor activity against human PC3 cells xenografted in mouse assessed as reduction in volume at 40 mg/kg dosed every second day starting from day 0 and ending on day 20 relative to control; format: functional
[20] = test system: LNCaP; assay: Inhibition of AR protein expression in human LNCAP cells at 20 uM incubated for 48 hrs by immunoblot analysis; format: functional, cell-based
[21] = Toxicity in mouse xenografted with human PC3 cells assessed as induction of body weight loss at 40 mg/kg co-treated with 10 mg/kg docetaxel dosed every second day starting from day 0 and ending on day 20; format: organism-based; conditions: in vivo
[22] = test system: PC-3; assay: Induction of apoptosis in human PC3 cells assessed as early apoptotic cells at 50 uM incubated for 48 hrs by Annexin-/7-AAD staining based FACS analysis (reference value: 2.53%); format: functional
[23] = test system: PC-3; assay: Antiproliferation activity against human PC3 cells assessed as cell proliferation at 10 uM by MTS assay; format: functional; conditions: read-out: Activity
[24] = test system: PC-3; assay: Antitumor activity against human PC3 cells xenografted in mouse assessed as reduction in volume at 40 mg/kg co-treated with 10 mg/kg docetaxel dosed every second day starting from day 0 and ending on day 20 (reference value: 500 mm3); format: functional
[25] = test system: LNCaP; assay: Inhibition of PIP5K1alpha protein expression in human LNCAP cells assessed as reduction in AKT phosphorylation at Ser473 residues at 20 uM incubated for 48 hrs by immunofluorescent analysis relative to control; format: functional, cell-based
[26] = test system: PC-3; assay: Induction of morphological changes in human PC3 cells assessed as reduction in cell size at 50 uM incubated for 48 hrs by live cell imaging system based assay; format: functional
[27] = test system: LNCaP; assay: Effect on CREB phosphorylation in human LNCAP cells at 20 uM incubated for 48 hrs by immunoblot analysis; format: functional, cell-based
[28] = test system: PC-3; assay: Induction of cell cycle arrest in human PC3 cells assessed as change in accumulation at G2/M phase at 50 uM incubated for 48 hrs by flow cytometry relative to control; format: functional
[29] = test system: LNCaP; assay: Inhibition of cell proliferation in human LNCAP cells assessed as reduction in viable cell count at 10 to 100 uM incubated for 48 hrs; format: functional, cell-based
[30] = test system: PC-3; assay: Antiproliferation activity against human PC3 cells assessed as cell proliferation at 50 uM by MTS assay; format: functional; conditions: read-out: Activity
[31] = test system: PC-3; assay: Induction of morphological changes in human PC3 cells assessed as changes in morphology at 50 uM incubated for 48 hrs by live cell imaging system based assay; format: functional
[32] = test system: CWR22R; assay: Antiproliferation activity against human 22Rv1 cells assessed as cell proliferation at 10 to 50 uM by MTS assay; format: functional, cell-based
[33] = test system: LNCaP; assay: Increase in p27 protein expression in human LNCAP cells at 20 uM incubated for 48 hrs by immunoblot analysis; format: functional, cell-based
[34] = test system: LNCaP; assay: Inhibition of PIP5K1alpha protein expression in human LNCAP cells at 20 uM incubated for 48 hrs by immunoblot analysis; format: functional, cell-based

With `CN1CC(=O)N2[C@H](c3c[nH]c4ccc(Cl)cc34)c3cc4c(cc3C[C@H]2C1=O)OCO4` the inhibition [1] was “inactive”, the inhibition [2] was “Active” and the inhibition [3] was “Active”. For the same compound, the Activity [4] was “Non-Toxic”, the growth at 20 µM [5] was 48.6% and the inhibition [6] was “Active”. The Activity [7] was “Active”, the inhibition [8] was “Active” and the Activity [9] was “Active”. For the same compound, the Activity [10] was “Active”, the Activity [11] was “Active” and the Activity [12] was 29.77%. It also gave an Activity [13] of 55.96%, a viability at 50 µM [14] of 80.2% and an inhibition at 20 µM [15] of 75.5%. The Activity [16] was 9.42%, the Activity [17] was “Active” and the inhibition [18] was “Active”. The Activity [19] was 458 mm3, the inhibition [20] was “Active” and the Activity [21] was “Non-Toxic”. It also gave an Activity [22] of 9.55%, a growth at 10 µM [23] of 58.8% and an Activity [24] of 36 mm3. The inhibition [25] was “Active”, the Activity [26] was “Active” and the Activity [27] was “inactive”. For the same compound, the Activity [28] was 4.96%, the inhibition [29] was “Active” and the growth at 50 µM [30] was 21.6%. The Activity [31] was “Active”, the Activity [32] was “Active” and the Activity [33] was “Active”. The inhibition [34] was “Active”.
